Article PMC6127852 (Journal of Enzyme Inhibition and Medicinal Chemistry, 2018)
Converted amounts (≈) assume the structure as drawn.

How the values were obtained:
[1] = system: polyA-polyU (RNA, polymer) A/U; experiment: UV-Vis titration, Scatchard; settings: PBS; for log Ks: I = 0.05 M (Table 1 says I = 0.015 M), cations not specified, I = 0.015 M (Methods: 0.05 M)
[2] = system: polyG-polyC (polyC-polyG) (RNA, polymer) G/C; experiment: UV-Vis titration, Scatchard; settings: PBS; for log Ks: I = 0.05 M (Table 1 says I = 0.015 M), cations not specified, I = 0.015 M (Methods: 0.05 M)
E. coli ATCC 25925 = experiment: Broth microdilution MIC, E. coli ATCC 25925; assay type: cell-based; settings: Escherichia coli, ATCC25925; Table S2
Method: (§1) The compounds were evaluated for their in vitro anti-bacterial activity against Gram-positive bacteria: S. aureus (ATCC 25923), MRSA, methicillin-sensitive S. aureus (MSSA), E. faecalis, vancomycin-resistant E. faecium (VREF), and Gram-negative bacteria: E. coli (ATCC 25925), P. aeruginosa (ATCC 27853), A. baumannii (ATCC 19606) and ESBL-producing K. pneumoniae (ATCC 27736). Standard broth microdilution method as recommended in guidelines of Clinical and Laboratory Standards Institute[61] ^, [65] ^, [66] was applied and the minimum inhibitory concentration (MIC) of compounds was tested. In short, testing was performed in U-bottomed 96-well sterile plastic microdilution trays (Falcon 3077, Becton Dickinson Labware, Franklin Lakes, NJ) in cation (Ca^2+ and Mg^2+) adjusted Mueller–Hinton broth medium (Becton Dickinson and Co., Cockeysville, MD). All testings were performed in triplicate.
(§2) The in vitro anti-bacterial activity of 5-amidinobenzimidazoles 7a–7e, 8a–8e, and 9a–9e was tested against Gram-positive bacteria including S. aureus (ATCC 25923), Enterococcus faecalis (ATCC 29212), and Gram-negative bacteria including E. coli (ATCC 25925), K. pneumoniae (ATCC 700803), P. aeruginosa (ATCC 27853), and Acinetobacter baumannii (ATCC 19606).

K. pneumonia ATCC 700803 = experiment: Broth microdilution MIC, K. pneumoniae ATCC 700803; assay type: cell-based; settings: Klebsiella pneumoniae, ATCC700803; Table S2
Method: as §1, §2

P. aeruginosa ATCC 27853 = experiment: Broth microdilution MIC, P. aeruginosa ATCC 27853; assay type: cell-based; settings: Pseudomonas aeruginosa, ATCC27853; Table S2
Method: as §1, §2

A. baumannii ATCC 19606 = experiment: Broth microdilution MIC, A. baumannii ATCC 19606; assay type: cell-based; settings: Acinetobacter baumannii, ATCC19606; Table S2
Method: as §1, §2

calf thymus ctDNA = experiment: UV–Vis titration with ctDNA (Scatchard); assay type: binding; settings: for Hypochromic effect H/%, ctDNA: UV–Vis titration, calculated by Scatchard equation; for Hypochromic effect H/%, ctDNA / log Ks, ctDNA: PBS, pH 7; for log Ks, ctDNA: binding constant, Scatchard
Method: (§3) Polynucleotides were purchased as follows: polyG–polyC, polyA–polyU (Sigma-Aldrich, St. Louis, MO), calf thymus ctDNA (Aldrich). Polynucleotides were dissolved in PBS buffer, I = 0.05 mol dm^−3, pH 7.0. The calf thymus ctDNA was additionally sonicated and filtered through a […] filter. The polynucleotide concentration was spectroscopically determined as the concentration of nucleobases.
(§4) All UV–Vis absorbance measurements were conducted on a Perkin Elmer Lambda 25 spectrophotometer (Perkin Elmer, Waltham, MA). A quartz cell with a 1 cm path length was used for all absorbance studies. Compound stock solutions were 1 mM. The DNA/RNA at increasing ratios was then titrated into the compound buffer solution (1.48 × 10^−5 mol dm^−3) and the corresponding absorption spectra were recorded under the same conditions. All data were graphed and analysed using Origin software version 9.0 (OriginLab Corporation, Northampton, MA). The stability constants (Ks) and [bound compound]/[polynucleotide phosphate] ratios (n) were calculated according to the Scatchard Equation[63] ^, [64]. Values for Ks and n given in Table 1 all have satisfying correlation coefficients (0.99).
(§5) The binding constants logKs and the density of the binding sites n were calculated using Scatchard plot analysis. In addition, the binding constants Ks for compounds 8b and 8e were calculated only for titration data taken at the r ≥ 0.1, because below that ratio changes in absorption maxima were too small for accurate calculation (ΔA ≤ 0.04) (Table 1). The binding constants Ks and ratios n obtained by processing UV–Vis titration data using the Scatchard equation are summarised in Table 1.

polyA-polyU [3] = experiment: UV–Vis titration with polyA-polyU (Scatchard); assay type: binding; settings: PBS, pH 7; for Hypochromic effect H/%, polyA-polyU: UV–Vis titration, calculated by Scatchard equation; for log Ks, polyA-polyU: binding constant, Scatchard
Method: as §3, §4, §5

polyC-polyG = experiment: UV–Vis titration with polyC-polyG (Scatchard); assay type: binding; settings: PBS, pH 7; for Hypochromic effect H/%, polyC-polyG: UV–Vis titration, calculated by Scatchard equation; for log Ks, polyC-polyG: binding constant, Scatchard
Method: as §3, §4, §5

ctDNA = experiment: Thermal melting (ΔTm) of ctDNA; assay type: binding, calf; settings: PBS, pH 7; for ΔTm, ctDNA, r = 0.3: r = [compound]/[polynucleotide] 0.3, error ±0.5 °C
Method: (§6) T m experiments were conducted with a Perkin Elmer Lambda 25 spectrophotometer in 1 cm quartz cuvettes. The absorbance of the DNA/RNA-compound complex was monitored at 260 nm as a function of temperature. The absorbance of the ligands was subtracted from every curve, and the absorbance scale was normalised. The ΔT m values were calculated by subtracting T m of the free nucleic acid from T m of the complex. Every reported ΔT m value was the average of at least two measurements. The error of ΔT m is ±0.5 °C. All data were graphed and analysed using Origin software version 9.0.
(§7) Denaturation experiments were carried out at different amounts of the compounds (r = 0.1, 0.3, 0.5, and 0.7 eq; r = [compound]/[polynucleotide]) with ctDNA and polyA-polyU.

polyA-polyU [4] = experiment: Thermal melting (ΔTm) of polyA-polyU; assay type: binding; settings: for ΔTm, polyA-polyU, r = 0.1: PBS, pH 7; for ΔTm, polyA-polyU, r = 0.3 / ΔTm, polyA-polyU, r = 0.5: first melting midpoint
Method: as §6, §7

S. aureus MRSA = experiment: Broth microdilution MIC, MRSA clinical strain; assay type: cell-based; settings: Staphylococcus aureus, antibiotic-resistant clinical strain
Method: as §1

S. aureus MSSA = experiment: Broth microdilution MIC, MSSA clinical strain; assay type: cell-based; settings: Staphylococcus aureus
Method: as §1

E. faecium VRE = experiment: Broth microdilution MIC, VRE clinical strain; assay type: cell-based; settings: Enterococcus faecium
Method: as §1

S. aureus ATCC 25923 = experiment: Broth microdilution MIC, S. aureus ATCC 25923; assay type: cell-based; settings: Staphylococcus aureus, ATCC25923; Table S2
Method: as §1, §2

E. faecalis ATCC 29212 = experiment: Broth microdilution MIC, E. faecalis ATCC 29212; assay type: cell-based; settings: Enterococcus faecalis, ATCC29212; Table S2
Method: as §1, §2

[5] = system: bloodstream form T. brucei (strain 221); experiment: Anti-trypanosomal screening, resazurin; assay type: cell-based; settings: Trypanosoma brucei, mean of triplicate ± SEM
Method: Bloodstream form T. brucei (strain 221) were cultured in modified Iscove’s medium, as outlined[67] and trypanocidal assays were performed using 96-well microtitre plates. […] Resazurin was added after 48 h, the plates incubated for a further 16 h, and then read in a Spectramax plate reader (Molecular Devices Corporation, San Jose, CA). The data were analysed using GraphPad Prism (GraphPad, La Jolla, CA). Each drug concentration was tested in triplicate.

[6] = system: polyA-polyU (RNA, polymer) A/U; experiment: UV melting at 260 nm; settings: PBS, I = 0.05 M, cations not specified, pH 7, r = 0.3 [compound]/[polynucleotide]
[7] = pH 7, changes too small for accurate calculation, compound 14.8 µM

Row | SMILES | MIC (E. coli ATCC 25925) [µg/mL] | MIC (K. pneumonia ATCC 700803) [µg/mL] | MIC (P. aeruginosa ATCC 27853) [µg/mL] | MIC (A. baumannii ATCC 19606) [µg/mL] | Hypochromic effect H/%, ctDNA (calf thymus ctDNA) [%] | Hypochromic effect H/%, polyA-polyU (polyA-polyU [3]) [%] | log Ks, polyA-polyU (polyA-polyU [3]) | log Ks, polyC-polyG (polyC-polyG) | ΔTm, ctDNA, r = 0.5 (ctDNA) [°C] | ΔTm, ctDNA, r = 0.7 (ctDNA) [°C] | ΔTm, ctDNA, r = 0.3 (ctDNA) [°C] | ΔTm, polyA-polyU, r = 0.1 (polyA-polyU [4]) [°C] | ΔTm, polyA-polyU, r = 0.3 (polyA-polyU [4]) [°C] | ΔTm, polyA-polyU, r = 0.5 (polyA-polyU [4]) [°C] | MIC (S. aureus MRSA) [µg/mL] | MIC (S. aureus MSSA) [µg/mL] | MIC (E. faecium VRE) [µg/mL] | MIC (S. aureus ATCC 25923) [µg/mL] | MIC (E. faecalis ATCC 29212) [µg/mL] | IC50 [5] [µM] | also measured
1 | COc1ccc(-n2cc(COc3ccc(-c4nc5ccc(C(=N)N)cc5[nH]4)cc3)nn2)cc1 |  |  |  |  |  |  |  |  |  |  |  |  |  |  |  |  |  |  |  |  | binding [1, 7]: weak; log Ks ([2]; pH 7, per base): 6.27
2 | O=C(O)c1cn(C2CC2)c2cc(N3CCNCC3)c(F)cc2c1=O [Ciprofloxacin, ciprofloxacin, reference compound] | 0.004 (≈ 0.0121 µM) | 0.06 (≈ 0.181 µM) | 0.5 (≈ 1.51 µM) | 0.06 (≈ 0.181 µM) |  |  |  |  |  |  |  |  |  |  |  |  |  |  |  |  | 
3 | CC(C)NC(=N)c1ccc2[nH]c(-c3ccc(OCc4cn(-c5ccccc5)nn4)cc3)nc2c1 [Compound 8a] | 256 (≈ 567 µM) | > 256 | > 256 | > 256 | 41.0 | 46.5 | 5.87 | 6.17 | 3.94 | 4.25 | 3.35 | 0.32 | 0.64 | 1.11 | 8 (≈ 17.7 µM) | 128 (≈ 283 µM) | 128 (≈ 283 µM) | 128 (≈ 283 µM) | 256 (≈ 567 µM) | 7.1 ± 0.7 | log Ks, ctDNA (calf thymus ctDNA): 6.17; Hypochromic effect H/%, polyC-polyG (polyC-polyG): 5.86%; IC90 [5]: 16.7 ± 1.2 µM; ΔTm ([6]; error ±0.5, per base): 0.64 °C; log Ks ([1]; pH 7, per base): 5.87; log Ks ([2]; pH 7, n fixed, per base): 6.17
4 | COc1ccc(-n2cc(COc3ccc(-c4nc5ccc(C6=NCCN6)cc5[nH]4)cc3)nn2)cc1 |  |  |  |  |  |  |  |  |  |  |  |  |  |  |  |  |  |  |  |  | ΔTm ([6]; error ±0.5, biphasic, second midpoint 36.08, per base): 2.67 °C; log Ks ([1]; pH 7, n fixed, per base): 5.46; binding [2, 7]: weak
5 | CC(C)NC(=N)c1ccc2nc(-c3ccc(OCc4cn(CSc5ccccc5)nn4)cc3)[nH]c2c1 |  |  |  |  |  |  |  |  |  |  |  |  |  |  |  |  |  |  |  |  | ΔTm ([6]; error ±0.5 (shift within error), per base): 0.23 °C; log Ks ([1]; pH 7, per base): 5.96; log Ks ([2]; pH 7, per base): 7.20
6 | CC1(C)S[C@@H]2[C@H](NC(=O)[C@H](N)c3ccccc3)C(=O)N2[C@H]1C(=O)O [Ampicillin, ampicillin, reference compound] |  |  |  |  |  |  |  |  |  |  |  |  |  |  | 4 (≈ 11.4 µM) | 1 (≈ 2.86 µM) | 1 (≈ 2.86 µM) | 1 (≈ 2.86 µM) | 2 (≈ 5.72 µM) |  | 
7 | CC(C)NC(=N)c1ccc2[nH]c(-c3ccc(OCc4cn(Cc5ccccc5)nn4)cc3)nc2c1 [Compound 8d] | > 256 | > 256 | > 256 | > 256 | 41.2 | 53.8 | 6.13 | 5.54 | 3.32 | 3.63 | 1.76 | 0.91 | 0.51 | 0.72 | 32 (≈ 68.7 µM) | 64 (≈ 137 µM) | 64 (≈ 137 µM) | 64 (≈ 137 µM) | 128 (≈ 275 µM) | 12.9 ± 0.2 | log Ks, ctDNA (calf thymus ctDNA): 5.93; IC90 [5]: 21.6 ± 0.4 µM; log Ks ([1]; pH 7, per base): 6.13; log Ks ([2]; pH 7, n fixed, per base): 5.54
8 | CNC(C)C1CCC(N)C(OC2C(N)CC(N)C(OC3OCC(C)(O)C(NC)C3O)C2O)O1 (stereo not drawn) [Gentamicin, gentamicin, reference compound] |  |  |  |  |  |  |  |  |  |  |  |  |  |  | 0.25 (≈ 0.523 µM) | 0.125 (≈ 0.262 µM) | 0.25 (≈ 0.523 µM) | 0.125 (≈ 0.262 µM) | 8 (≈ 16.8 µM) |  | 
9 | CC(C)NC(=N)c1ccc2[nH]c(-c3ccc(OCc4cn(CSc5ccccc5)nn4)cc3)nc2c1.Cl.Cl [Compound 8e, N-isopropyl-2–(4-((1-(phenylthiomethyl)-1H-1,2,3-triazol-4-yl)methoxy)phenyl)-1H-benz[d]imidazole-5-carboximidamide dihydrochloride] | 256 | > 256 | > 256 | > 256 | 44.2 | 47.2 | 5.96 | 7.20 | 1.72 | 1.71 | 2.22 | 0.52 | 0.23 | 0.26 | 8 | 64 | 64 | 64 | 256 | 13.5 ± 0.8 | log Ks, ctDNA (range r ≥ 0.1) (calf thymus ctDNA; footnote f: mixed binding mode, calculated in range r ≥ 0.1): 6.39; Hypochromic effect H/%, polyC-polyG (polyC-polyG): 5.96%; IC90 [5]: 22.5 ± 0.3 µM; melting point: 152 to 154 °C
